From ChEMBL document CHEMBL4402509, “Betulinic acid induces apoptosis and inhibits metastasis of human colorectal cancer cells in vitro and in vivo” (Bioorg Med Chem, 2019)
The source made the active and inactive calls. The rule behind the calls is not given here.

Columns and labels:
[1] = Toxicity in BALB/c mouse xenografted with human HCT116 cells assessed as induction of alterations in lung at 10 to 20 mg/kg, ip dosed daily for 21 days starting from 1 day post implantation and measured every three days by hematoxylin and eosin staining based histopathological analysis; assay type: organism-based; conditions: in vivo
[2] = tested on: SW480; test: Inhibition of colony formation of human SW480 cells assessed as reduction in clonogenic ability at 5 to 20 ug/ml incubated for 10 to 14 days by crystal violet staining based assay; assay type: functional, cell-based
[3] = tested on: HCT-116; test: Induction of apoptosis in human HCT116 cells assessed as increase in Bax protein expression incubated for 48 hrs by Western blot analysis; assay type: functional, cell-based
[4] = tested on: HCT-116; test: Induction of apoptosis in human HCT116 cells assessed as reduction in Bcl2 protein expression incubated for 48 hrs by Western blot analysis; assay type: functional, cell-based
[5] = tested on: HCT-116; test: Induction of apoptosis in human HCT116 cells assessed as viable cell level at 10 ug/ml incubated for 48 hrs by annexin-V/PI staining based flow cyclometry (reference value: 81.8%); assay type: functional
[6] = tested on: HCT-116; test: Induction of apoptosis in human HCT116 cells assessed as necrotic cell level at 20 ug/ml incubated for 48 hrs by annexin-V/PI staining based flow cyclometry (reference value: 4.9%); assay type: functional
[7] = tested on: HCT-116; test: Induction of mitochondrial membrane potential loss in human HCT116 cells at 20 ug/ml incubated for 48 hrs by RH123.dye based FCM analysis (reference value: 6.37%); assay type: functional
[8] = Toxicity in BALB/c mouse xenografted with human HCT116 cells assessed as induction of alterations in liver at 10 to 20 mg/kg, ip dosed daily for 21 days starting from 1 day post implantation and measured every three days by hematoxylin and eosin staining based histopathological analysis; assay type: organism-based; conditions: in vivo
[9] = tested on: HCT-116; test: Induction of mitochondrial membrane potential loss in human HCT116 cells at 5 ug/ml incubated for 48 hrs by RH123.dye based FCM analysis (reference value: 6.37%); assay type: functional
[10] = tested on: HCT-116; test: Induction of apoptosis in human HCT116 cells assessed as late apoptotic cell level at 5 ug/ml incubated for 48 hrs by annexin-V/PI staining based flow cyclometry (reference value: 5.11%); assay type: functional
[11] = tested on: HCT-116; test: Antitumor activity against human HCT116 cells xenografted in BALB/c mouse assessed as reduction in Ki-67 positive cells in tumor at 10 to 20 mg/kg, ip dosed daily for 21 days starting from 1 day post implantation and measured every three days by immunohistochemistry analysis; assay type: functional, organism-based
[12] = Toxicity in BALB/c mouse xenografted with human HCT116 cells assessed as induction of alterations in kidney at 10 to 20 mg/kg, ip dosed daily for 21 days starting from 1 day post implantation and measured every three days by hematoxylin and eosin staining based histopathological analysis; assay type: organism-based; conditions: in vivo
[13] = tested on: HCT-116; test: Induction of apoptosis in human HCT116 cells assessed as late apoptotic cell level at 20 ug/ml incubated for 48 hrs by annexin-V/PI staining based flow cyclometry (reference value: 5.11%); assay type: functional
[14] = tested on: HCT-116; test: Induction of mitochondrial membrane potential loss in human HCT116 cells at 10 ug/ml incubated for 48 hrs by RH123.dye based FCM analysis (reference value: 6.37%); assay type: functional
[15] = tested on: HCT-116; test: Induction of ROS generation in human HCT116 cells at 5 ug/ml incubated for 48 hrs by DCFH-DA staining based FCM analysis (reference value: 4.44%); assay type: functional
[16] = tested on: HCT-116; test: Induction of ROS generation in human HCT116 cells at 5 to 20 ug/ml incubated for 48 hrs by DCFH-DA staining based FCM analysis; assay type: functional, cell-based
[17] = Toxicity in BALB/c mouse xenografted with human HCT116 cells assessed as induction of alterations in heart at 10 to 20 mg/kg, ip dosed daily for 21 days starting from 1 day post implantation and measured every three days by hematoxylin and eosin staining based histopathological analysis; assay type: organism-based; conditions: in vivo
[18] = tested on: HCT-116; test: Induction of mitochondrial membrane potential loss in human HCT116 cells at 5 to 20 ug/ml incubated for 48 hrs by RH123.dye based FCM analysis; assay type: functional, cell-based
[19] = tested on: HCT-116; test: Antitumor activity against human HCT116 cells xenografted in BALB/c mouse assessed as reduction in MMP2 positive cells in tumor at 10 to 20 mg/kg, ip dosed daily for 21 days starting from 1 day post implantation and measured every three days by immunohistochemistry analysis; assay type: functional, organism-based
[20] = tested on: DLD-1; test: Inhibition of cell motility associated protein expression in human DLD1 cells assessed as effect on TIMP2 expression at 5 to 20 ug/ml incubated for 48 hrs by Western blot analysis; assay type: functional, cell-based
[21] = tested on: HCT-116; test: Induction of apoptosis in human HCT116 cells assessed as early apoptotic cell level at 5 ug/ml incubated for 48 hrs by annexin-V/PI staining based flow cyclometry (reference value: 1.84%); assay type: functional
[22] = tested on: HCT-116; test: Induction of apoptosis in human HCT116 cells assessed as viable cell level at 5 ug/ml incubated for 48 hrs by annexin-V/PI staining based flow cyclometry (reference value: 81.8%); assay type: functional
[23] = tested on: DLD-1; test: Inhibition of cell invasion in human DLD1 cells at 5 to 20 ug/ml incubated for 48 hrs by crystal violet staining based inverted microscopy; assay type: functional
[24] = Toxicity in BALB/c mouse xenografted with human HCT116 cells assessed as effect on body weight at 10 to 20 mg/kg, ip dosed daily for 21 days starting from 1 day post implantation and measured every three days; assay type: organism-based; conditions: in vivo
[25] = tested on: HCT-116; test: Induction of apoptosis in human HCT116 cells assessed as necrotic cell level at 10 ug/ml incubated for 48 hrs by annexin-V/PI staining based flow cyclometry (reference value: 4.9%); assay type: functional
[26] = tested on: HCT-116; test: Inhibition of colony formation of human HCT116 cells assessed as reduction in clonogenic ability at 5 to 20 ug/ml incubated for 10 to 14 days by crystal violet staining based assay; assay type: functional, cell-based
[27] = tested on: HCT-116; test: Induction of apoptosis in human HCT116 cells assessed as early apoptotic cell level at 10 ug/ml incubated for 48 hrs by annexin-V/PI staining based flow cyclometry (reference value: 1.84%); assay type: functional
[28] = tested on: HCT-116; test: Antitumor activity against human HCT116 cells xenografted in BALB/c mouse assessed as inhibition of tumor growth at 10 to 20 mg/kg, ip dosed daily for 21 days starting from 1 day post implantation and measured every three days; assay type: functional, organism-based
[29] = tested on: DLD-1; test: Inhibition of cell motility associated protein expression in human DLD1 cells assessed as effect on MMP2 expression at 5 to 20 ug/ml incubated for 48 hrs by Western blot analysis; assay type: functional, cell-based
[30] = tested on: HCT-116; test: Induction of apoptosis in human HCT116 cells assessed as viable cell level at 20 ug/ml incubated for 48 hrs by annexin-V/PI staining based flow cyclometry (reference value: 81.8%); assay type: functional
[31] = Toxicity in BALB/c mouse xenografted with human HCT116 cells assessed as induction of alterations in spleen at 10 to 20 mg/kg, ip dosed daily for 21 days starting from 1 day post implantation and measured every three days by hematoxylin and eosin staining based histopathological analysis; assay type: organism-based; conditions: in vivo
[32] = tested on: HCT-116; test: Induction of ROS generation in human HCT116 cells at 20 ug/ml incubated for 48 hrs by DCFH-DA staining based FCM analysis (reference value: 4.44%); assay type: functional
[33] = tested on: HCT-116; test: Induction of ROS generation in human HCT116 cells at 10 ug/ml incubated for 48 hrs by DCFH-DA staining based FCM analysis (reference value: 4.44%); assay type: functional
[34] = tested on: HCT-116; test: Induction of apoptosis in human HCT116 cells assessed as necrotic cell level at 5 ug/ml incubated for 48 hrs by annexin-V/PI staining based flow cyclometry (reference value: 4.9%); assay type: functional
[35] = tested on: HCT-116; test: Induction of apoptosis in human HCT116 cells incubated for 48 hrs by annexin-V/PI staining based flow cyclometry; assay type: functional, cell-based
[36] = tested on: HCT-116; test: Induction of apoptosis in human HCT116 cells assessed as early apoptotic cell level at 20 ug/ml incubated for 48 hrs by annexin-V/PI staining based flow cyclometry (reference value: 1.84%); assay type: functional
[37] = tested on: DLD-1; test: Inhibition of cell migration in human DLD1 cells at 5 to 20 ug/ml incubated for 48 hrs by Transwell migration assay; assay type: functional, cell-based
[38] = tested on: DLD-1; test: Inhibition of cell motility associated protein expression in human DLD1 cells assessed as effect on MMP9 expression at 5 to 20 ug/ml incubated for 48 hrs by Western blot analysis; assay type: functional, cell-based
[39] = tested on: DLD-1; test: Inhibition of colony formation of human DLD1 cells assessed as reduction in clonogenic ability at 5 to 20 ug/ml incubated for 10 to 14 days by crystal violet staining based assay; assay type: functional, cell-based
[40] = tested on: HCT-116; test: Induction of apoptosis in human HCT116 cells assessed as increase in cleaved capse-3 protein level incubated for 48 hrs by Western blot analysis; assay type: functional, cell-based
[41] = tested on: HCT-116; test: Induction of apoptosis in human HCT116 cells assessed as late apoptotic cell level at 10 ug/ml incubated for 48 hrs by annexin-V/PI staining based flow cyclometry (reference value: 5.11%); assay type: functional

SMILES: C=C(C)[C@@H]1CC[C@]2(C(=O)O)CC[C@]3(C)[C@H](CC[C@@H]4[C@@]5(C)CC[C@H](O)C(C)(C)[C@@H]5CC[C@]43C)[C@@H]12 [BETULINIC ACID]
- Activity [1]: Non-Toxic
- inhibition [2]: Active
- Activity [3]: Dose-dependent effect
- Activity [4]: Dose-dependent effect
- Activity [5]: 73.8%
- Activity [6]: 14.5%
- Activity [7]: 21.3%
- Activity [8]: Non-Toxic
- Activity [9]: 17.2%
- Activity [10]: 11.5%
- inhibition [11]: Active
- Activity [12]: Non-Toxic
- Activity [13]: 25.2%
- Activity [14]: 19.5%
- Activity [15]: 9.58%
- Activity [16]: Dose-dependent effect
- Activity [17]: Non-Toxic
- Activity [18]: Active
- inhibition [19]: Active
- inhibition [20]: Active
- Activity [21]: 1.63%
- Activity [22]: 79%
- Activity [23]: Active
- Activity [24]: Non-Toxic
- Activity [25]: 10.9%
- inhibition [26]: Active
- Activity [27]: 2.33%
- TGI [28]: Active
- inhibition [29]: Active
- Activity [30]: 53.5%
- Activity [31]: Non-Toxic
- Activity [32]: 18.9%
- Activity [33]: 13.6%
- Activity [34]: 7.94%
- Activity [35]: Dose-dependent effect
- Activity [36]: 6.72%
- Activity [37]: Active
- inhibition [38]: Active
- inhibition [39]: Active
- Activity [40]: Dose-dependent effect
- Activity [41]: 13%
